Assay results as given in ChEMBL document CHEMBL1129106, “The development of non-steroidal dual inhibitors of both human 5-reductase isozymes” (Bioorg Med Chem Lett, 1996).

How the values were obtained:
[1] = molecular target: T1, 3-oxo-5-alpha-steroid 4-dehydrogenase 2 (Homo sapiens) (UniProt P31213); experiment: Compound was tested in vitro for its inhibitory activity against human 5Alpha-R2 expressed as potency.
T1 sequence (whole entry): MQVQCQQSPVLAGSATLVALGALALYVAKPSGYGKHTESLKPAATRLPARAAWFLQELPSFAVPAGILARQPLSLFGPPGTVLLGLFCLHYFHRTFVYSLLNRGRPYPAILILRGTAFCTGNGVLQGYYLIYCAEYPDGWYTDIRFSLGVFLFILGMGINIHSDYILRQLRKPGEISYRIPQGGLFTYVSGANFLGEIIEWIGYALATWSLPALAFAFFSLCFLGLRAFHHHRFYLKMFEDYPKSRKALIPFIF

[2] = molecular target: Steroid 5-alpha-reductase (Rattus norvegicus) (UniProt P24008+P31214); experiment: Compound was tested in vitro for its inhibitory activity against rat 5Alpha-R expressed as potency; assay type: protein assay
[3] = molecular target: T2, 3-oxo-5-alpha-steroid 4-dehydrogenase 1 (Homo sapiens) (UniProt P18405); experiment: Compound was tested in vitro for its inhibitory activity against human 5Alpha-R1 expressed as potency.
T2 sequence (whole entry): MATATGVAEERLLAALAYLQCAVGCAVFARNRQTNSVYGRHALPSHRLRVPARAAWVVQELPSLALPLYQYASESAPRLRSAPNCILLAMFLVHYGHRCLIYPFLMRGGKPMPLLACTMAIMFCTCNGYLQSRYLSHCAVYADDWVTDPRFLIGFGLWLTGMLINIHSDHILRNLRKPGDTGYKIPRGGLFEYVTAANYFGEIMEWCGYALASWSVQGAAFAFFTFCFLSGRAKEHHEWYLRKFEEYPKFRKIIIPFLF

[4] = Volume of distribution in dog; assay type: ADME, organism-based, Canis lupus familiaris; details: in vivo
[5] = Volume of distribution in rat.; assay type: ADME, organism-based; details: in vivo
[6] = Oral bioavailability in dog; assay type: ADME, organism-based, Canis lupus familiaris; details: in vivo
[7] = Plasma clearance in dog; assay type: ADME, organism-based, Canis lupus familiaris
[8] = Oral bioavailability in rat; assay type: ADME, organism-based; details: in vivo
[9] = Half-life in rat plasma; assay type: ADME, organism-based
[10] = Plasma clearance in rat.; assay type: ADME, organism-based

Steroid 5-alpha-reductase (Rattus norvegicus), sequence (P24008 whole entry, looked up): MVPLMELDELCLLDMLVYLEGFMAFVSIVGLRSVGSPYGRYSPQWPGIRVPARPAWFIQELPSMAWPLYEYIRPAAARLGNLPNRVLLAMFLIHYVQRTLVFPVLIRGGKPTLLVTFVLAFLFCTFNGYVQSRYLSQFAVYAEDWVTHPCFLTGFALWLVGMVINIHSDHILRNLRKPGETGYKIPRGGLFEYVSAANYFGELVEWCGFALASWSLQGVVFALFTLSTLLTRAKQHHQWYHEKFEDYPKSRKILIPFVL
Steroid 5-alpha-reductase (Rattus norvegicus), sequence (P31214 whole entry, looked up): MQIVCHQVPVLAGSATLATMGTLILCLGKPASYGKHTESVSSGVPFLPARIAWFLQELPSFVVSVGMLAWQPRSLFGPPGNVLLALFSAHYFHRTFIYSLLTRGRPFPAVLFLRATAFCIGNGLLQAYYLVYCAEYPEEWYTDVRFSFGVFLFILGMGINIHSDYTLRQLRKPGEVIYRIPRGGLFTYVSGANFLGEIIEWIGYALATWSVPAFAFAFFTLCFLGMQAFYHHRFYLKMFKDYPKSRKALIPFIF

Cc1c(O[C@@H](C)c2ccc(CC(C)C)cc2)ccc(C(=O)Nc2ccccc2OCCCC(=O)O)c1C
Potency [1]: 256 nM

CC(C)Cc1ccc([C@@H](C)Oc2ccc(C(=O)c3cn(CCCC(=O)O)c4ccccc34)cc2)cc1
Potency [1]: 69 nM | Potency [2]: 30 nM | Potency [3]: 574 nM

CCCc1ccc(OC(C)c2ccc(C(=O)c3cn(CCCC(=O)O)c4ccccc34)cc2)cc1 (stereo unspecified)
Potency [1]: 10 nM | Potency [2]: 5 nM | Potency [3]: 8 nM

CC(C)Cc1ccc(C(C)Oc2ccc(C(=O)N3CC(CCCC(=O)O)c4ccccc43)cc2)cc1 (stereo unspecified)
Potency [1]: 481 nM | Potency [2]: 24 nM | Potency [3]: 113 nM

CC(C)Cc1ccc([C@]2(C)Oc3ccc(C(=O)c4cn(CCCC(=O)O)c5ccccc45)cc3O2)cc1
Potency [1]: 23 nM | Potency [2]: 9 nM | Potency [3]: 25 nM

CC(C)Cc1ccc([C@H](C)Oc2ccc(C(=O)c3cn(CCCC(=O)O)c4ccccc34)cc2)cc1
Vd [4]: 0.9 L/kg | Potency [1]: 4 nM | Vd [5]: 3.6 L/kg | bioavailability [6]: 86% | clearance [7]: 2.4 mL/min/kg | bioavailability [8]: 56% | half-life [9]: 3.7 h | Potency [2]: 1 nM | Potency [3]: 40 nM | clearance [10]: 11 mL/min/kg

O=C(O)CCCn1cc(C(=O)c2ccc3c(c2)OC(c2ccccc2)(c2ccccc2)O3)c2ccccc21
Potency [1]: 34 nM | Potency [2]: 3 nM | Potency [3]: 23 nM
